Columns and labels:
Assay in all cases: Competitive isoTOP-ABPP, cell lysates;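 on isoTOP-ABPP reactivity profile ratio, O00170 C122: Heavy/light ratio DMSO over fragment-treated so higher means more cysteine engagement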;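 on isoTOP-ABPP reactivity profile ratio, Q15084 C190: Heavy/light ratio DMSO over fragment-treated so higher means more cysteine engagement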
Assay type in all cases: binding
Details in all cases: 500 μm, in-vitro_ramos_231
XPO1 C34 (O14980) = XPO1 C34 (O14980) (Homo sapiens, UniProt O14980)
Protocol: (§1) TEV digests were pressure loaded onto a 250 μm (inner diameter) fused silica capillary column packed with C18 resin (Aqua 5 μm, Phenomenex). The samples were analyzed by multidimensional liquid chromatography tandem mass spectrometry (MudPIT), using an LTQ-Velos Orbitrap mass spectrometer (Thermo Scientific) coupled to an Agilent 1200-series quaternary pump. The peptides were eluted onto a biphasic column with a 5 μm tip (100 μm fused silica, packed with C18 (10 cm) and bulk strong cation exchange resin (3 cm, SCX, Phenomenex,)) in a 5-step MudPIT experiment, using 0%, 30%, 60%, 90%, and 100% salt bumps of 500 mM aqueous ammonium acetate and using a gradient of 5-100% buffer B in buffer A (buffer A: 95% water, 5% acetonitrile, 0.1% formic acid; buffer B: 5% water, 95% acetonitrile, 0.1% formic acid) as has been described in Weerapana et al. Nat Protoc 2:1414-1425 (2007). Data was collected in data-dependent acquisition mode with dynamic exclusion enabled (20 s, repeat of 2). One full MS (MS1) scan (400-1800 m/z) was followed by 30 MS2 scans (ITMS) of the nth most abundant ions.
(§2) The ratios of heavy/light for each unique peptide (DMSO/compound treated; isoTOP-ABPP ratios, R values) were quantified with in-house CIMAGE software, using default parameters (3 ms s per peak and signal to noise threshold 2.5). Site-specific engagement of electrophilic fragments was assessed by blockade of IA-alkyne probe labeling. […] Ratios for unique peptide entries were calculated for each experiment; overlapping peptides with the same modified cysteine (e.g. different charge states, MudPIT chromatographic steps or tryptic termini) were grouped together and the median ratio was reported as the final ratio (R). The peptide ratios reported by CIMAGE were further filtered to ensure the removal or correction of low quality ratios in each individual dataset. The quality filters applied were the following: removal of half tryptic peptides; for ratios with high standard deviations from the median (90% of the median or above) the lowest ratio was taken instead of the median; removal of peptides with R=20 and only a single ms2 event triggered during the elution of the parent ion; manual annotation of all the peptides with ratios of 20, removing any peptides with low-quality elution profiles that remained after the previous curation steps. Proteome reactivity values for individual fragments were computed as the percentage of the total quantified cysteine-containing peptides with R values≥4 (defined as liganded cysteines) for each replicate experiment and the final proteome reactivity value was calculated as the mean for all replicate experiments for each fragment from both MDA-MB-231 and Ramos cellular proteomes.
(§3) Biological replicates of the same compound and cell-line were averaged if the standard deviation was below 60% of the mean; otherwise the lowest value of the ratio set was taken.

UBE2S C118 (Q16763) = biological target: T1, UBE2S C118 (Q16763) (Homo sapiens, UniProt Q16763)
T1 sequence (Q16763 1-222): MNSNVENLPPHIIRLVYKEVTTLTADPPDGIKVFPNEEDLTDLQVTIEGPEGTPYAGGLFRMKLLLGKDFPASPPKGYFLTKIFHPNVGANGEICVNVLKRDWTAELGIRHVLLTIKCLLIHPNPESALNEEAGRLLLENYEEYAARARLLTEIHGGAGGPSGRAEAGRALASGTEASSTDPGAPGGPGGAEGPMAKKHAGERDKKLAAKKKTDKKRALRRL
Protocol: as §1, §2, §3

SAMHD1 C522 (Q9Y3Z3) = SAMHD1 C522 (Q9Y3Z3) (Homo sapiens, UniProt Q9Y3Z3)
Protocol: as §1, §2, §3

PDIA6 C190 (Q15084) = biological target: T2, PDIA6 C190 (Q15084) (Homo sapiens, UniProt Q15084);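 on isoTOP-ABPP reactivity profile ratio, Q15084 C190: Heavy/light ratio DMSO over fragment-treated so higher means more cysteine engagement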
T2 sequence (Q15084 20-440): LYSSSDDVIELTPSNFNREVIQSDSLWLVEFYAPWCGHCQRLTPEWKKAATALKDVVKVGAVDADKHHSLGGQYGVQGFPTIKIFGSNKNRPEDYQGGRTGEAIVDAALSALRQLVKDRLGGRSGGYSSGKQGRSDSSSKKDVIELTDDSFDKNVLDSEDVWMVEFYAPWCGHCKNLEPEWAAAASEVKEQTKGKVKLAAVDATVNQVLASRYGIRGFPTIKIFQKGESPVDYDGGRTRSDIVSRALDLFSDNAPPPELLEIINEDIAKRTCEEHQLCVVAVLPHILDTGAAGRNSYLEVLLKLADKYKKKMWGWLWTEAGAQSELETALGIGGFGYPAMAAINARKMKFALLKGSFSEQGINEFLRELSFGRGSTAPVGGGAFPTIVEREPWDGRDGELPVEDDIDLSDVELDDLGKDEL
Protocol: as §1, §2, §3

SMARCC2 C145 (Q8TAQ2) = SMARCC2 C145 (Q8TAQ2) (Homo sapiens, UniProt Q8TAQ2)
Protocol: as §1, §2, §3

GNB2L1 C182 (P63244) = GNB2L1 C182 (P63244) (Homo sapiens, UniProt P63244)
Protocol: as §1, §2, §3

GSTP1 C48 (P09211) = GSTP1 C48 (P09211) (Homo sapiens, UniProt P09211)
Protocol: as §1, §2, §3

PRMT1 C109 (Q99873) = PRMT1 C109 (Q99873) (Homo sapiens, UniProt Q99873)
Protocol: as §1, §2, §3

ZNF217 C286 (O75362) = ZNF217 C286 (O75362) (Homo sapiens, UniProt O75362)
Protocol: as §1, §2, §3

PDIA6 C55 (Q15084) = biological target: T3, PDIA6 C55 (Q15084) (Homo sapiens, UniProt Q15084)
T3 sequence (Q15084 20-440): T2 sequence (Q15084 20-440)
Protocol: as §1, §2, §3

UBE2L3 C86 (P68036) = UBE2L3 C86 (P68036) (Homo sapiens, UniProt P68036)
Protocol: as §1, §2, §3

PDE12 C108 (Q6L8Q7) = biological target: T4, PDE12 C108 (Q6L8Q7) (Homo sapiens, UniProt Q6L8Q7)
T4 sequence (Q6L8Q7 43-609): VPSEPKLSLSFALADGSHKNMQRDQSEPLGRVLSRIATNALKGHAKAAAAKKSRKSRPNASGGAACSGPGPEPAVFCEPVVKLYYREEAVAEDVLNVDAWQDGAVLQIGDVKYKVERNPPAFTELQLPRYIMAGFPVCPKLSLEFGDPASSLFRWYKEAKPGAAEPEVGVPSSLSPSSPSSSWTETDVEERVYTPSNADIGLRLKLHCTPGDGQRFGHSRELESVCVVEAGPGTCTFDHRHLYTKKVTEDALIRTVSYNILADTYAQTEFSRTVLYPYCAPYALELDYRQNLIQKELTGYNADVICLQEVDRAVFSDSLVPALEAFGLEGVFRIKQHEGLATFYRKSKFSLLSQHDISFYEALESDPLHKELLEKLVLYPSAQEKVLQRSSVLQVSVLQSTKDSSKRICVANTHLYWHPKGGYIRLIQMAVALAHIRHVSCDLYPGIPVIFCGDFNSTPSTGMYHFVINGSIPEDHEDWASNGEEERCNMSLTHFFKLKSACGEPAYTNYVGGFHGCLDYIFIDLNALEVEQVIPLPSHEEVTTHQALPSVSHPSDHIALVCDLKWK
Protocol: as §1, §2, §3

ACAT1 C119 (P24752) = biological target: T5, ACAT1 C119 (P24752) (Homo sapiens, UniProt P24752)
T5 sequence (P24752 34-427): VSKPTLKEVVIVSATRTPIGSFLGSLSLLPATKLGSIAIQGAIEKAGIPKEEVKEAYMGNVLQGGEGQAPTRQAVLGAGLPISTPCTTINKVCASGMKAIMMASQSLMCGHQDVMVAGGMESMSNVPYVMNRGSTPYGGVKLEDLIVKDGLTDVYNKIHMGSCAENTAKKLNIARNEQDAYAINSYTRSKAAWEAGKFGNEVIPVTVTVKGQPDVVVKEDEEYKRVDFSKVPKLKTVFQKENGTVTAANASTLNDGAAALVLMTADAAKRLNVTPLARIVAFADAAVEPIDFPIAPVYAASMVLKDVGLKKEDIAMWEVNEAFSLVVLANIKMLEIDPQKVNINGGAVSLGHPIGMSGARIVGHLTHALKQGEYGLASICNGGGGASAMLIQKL

ACAT1 C413 (P24752) = biological target: T6, ACAT1 C413 (P24752) (Homo sapiens, UniProt P24752)
T6 sequence (P24752 34-427): T5 sequence (P24752 34-427)

ACAT1 C196 (P24752) = biological target: T7, ACAT1 C196 (P24752) (Homo sapiens, UniProt P24752)
T7 sequence (P24752 34-427): T5 sequence (P24752 34-427)

LRBA C1704 (P50851) = LRBA C1704 (P50851) (Homo sapiens, UniProt P50851)
Protocol: as §1, §2, §3

AIP C122 (O00170) = biological target: T8, AIP C122 (O00170) (Homo sapiens, UniProt O00170);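 further: Heavy/light ratio DMSO over fragment-treated so higher means more cysteine engagement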
T8 sequence (O00170 1-330): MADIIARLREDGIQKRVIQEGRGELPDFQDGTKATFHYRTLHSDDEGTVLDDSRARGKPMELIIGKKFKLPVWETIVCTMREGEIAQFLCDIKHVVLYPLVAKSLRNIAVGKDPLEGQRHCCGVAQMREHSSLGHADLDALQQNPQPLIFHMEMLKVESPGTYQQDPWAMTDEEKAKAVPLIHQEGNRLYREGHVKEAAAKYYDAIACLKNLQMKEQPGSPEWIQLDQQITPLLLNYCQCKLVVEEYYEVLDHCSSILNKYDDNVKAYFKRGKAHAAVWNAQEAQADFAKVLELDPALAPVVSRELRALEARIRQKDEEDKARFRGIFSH
Protocol: as §1, §2, §3

ACAT1 C126 (P24752) = biological target: T9, ACAT1 C126 (P24752) (Homo sapiens, UniProt P24752)
T9 sequence (P24752 34-427): T5 sequence (P24752 34-427)

COC(=O)C1Cc2ccccc2CN1C(=O)CCl (stereo not shown) [compound 39]
isoTOP-ABPP reactivity ratio, O14980_C34 (XPO1 C34 (O14980)): 1.3
isoTOP-ABPP reactivity ratio, Q16763_C118 (UBE2S C118 (Q16763)): 1.4
isoTOP-ABPP reactivity ratio, Q9Y3Z3_C522 (SAMHD1 C522 (Q9Y3Z3)): 1.1
isoTOP-ABPP reactivity ratio, Q15084_C190 (PDIA6 C190 (Q15084)): 7.0
isoTOP-ABPP reactivity ratio, Q8TAQ2_C145 (SMARCC2 C145 (Q8TAQ2)): 1.2
isoTOP-ABPP reactivity ratio, P63244_C182 (GNB2L1 C182 (P63244)): 1.0
isoTOP-ABPP reactivity ratio, P09211_C48 (GSTP1 C48 (P09211)): 2.0
isoTOP-ABPP reactivity ratio, Q99873_C109 (PRMT1 C109 (Q99873)): 1.5
isoTOP-ABPP reactivity ratio, O75362_C286 (ZNF217 C286 (O75362)): 20.0
isoTOP-ABPP reactivity ratio, Q15084_C55 (PDIA6 C55 (Q15084)): 3.9
isoTOP-ABPP reactivity ratio, P68036_C86 (UBE2L3 C86 (P68036)): 1.9
isoTOP-ABPP reactivity ratio, Q6L8Q7_C108 (PDE12 C108 (Q6L8Q7)): 3.2
isoTOP-ABPP reactivity ratio, P24752_C119 (ACAT1 C119 (P24752)): 1.7
isoTOP-ABPP reactivity ratio, P24752_C413 (ACAT1 C413 (P24752)): 2.7
isoTOP-ABPP reactivity ratio, P24752_C196 (ACAT1 C196 (P24752)): 3.0

Cc1ccc(C(F)(F)F)cc1NC(=O)CCl [compound 49]
isoTOP-ABPP reactivity profile ratio, O14980_C34 (XPO1 C34 (O14980)): 1.9
isoTOP-ABPP reactivity profile ratio, Q9Y3Z3_C522 (SAMHD1 C522 (Q9Y3Z3)): 3.0
isoTOP-ABPP reactivity profile ratio, P50851_C1704 (LRBA C1704 (P50851)): 4.0
isoTOP-ABPP reactivity profile ratio, Q15084_C190 (PDIA6 C190 (Q15084)): 7.7
isoTOP-ABPP reactivity profile ratio, Q99873_C109 (PRMT1 C109 (Q99873)): 2.0
isoTOP-ABPP reactivity profile ratio, O75362_C286 (ZNF217 C286 (O75362)): 1.0
isoTOP-ABPP reactivity profile ratio, O00170_C122 (AIP C122 (O00170)): 4.8
isoTOP-ABPP reactivity profile ratio, Q15084_C55 (PDIA6 C55 (Q15084)): 12.8
isoTOP-ABPP reactivity profile ratio, P68036_C86 (UBE2L3 C86 (P68036)): 1.9
isoTOP-ABPP reactivity profile ratio, P24752_C119 (ACAT1 C119 (P24752)): 4.9
isoTOP-ABPP reactivity profile ratio, P24752_C126 (ACAT1 C126 (P24752)): 20.0
isoTOP-ABPP reactivity profile ratio, P24752_C413 (ACAT1 C413 (P24752)): 2.6
isoTOP-ABPP reactivity profile ratio, P24752_C196 (ACAT1 C196 (P24752)): 4.7

Reference: patent publication US10670605B2, “Cysteine reactive probes and uses thereof” (The Scripps Research Institute, priority 2015, dated 2020)
